Test: xn = mol fraction of the nth substance listed
Conditions: Liquid; for viscosity / speed of sound: 101 kPa; for viscosity: Capillary tube (Ostwald / Ubbelohde) method; for speed of sound: Frequency=2 MHz, Pulse-echo method; for mass density: 101.33 kPa, Vibrating tube method

ClCC(Cl)Cl [1,1,2-trichloroethane] + N#CCc1ccccc1
Conditions	mass density, 303.15 K [kg/m3]	mass density, 308.15 K [kg/m3]	mass density, 313.15 K [kg/m3]	speed of sound, 303.15 K [m/s]	speed of sound, 308.15 K [m/s]	speed of sound, 313.15 K [m/s]	viscosity, 303.15 K [mPa·s]	viscosity, 308.15 K [mPa·s]	viscosity, 313.15 K [mPa·s]
x2 = 0	1425	1416.1	1409.6	1129.2	1115.9	1096.1	1.019	0.9483	0.8888
x2 = 0.0185	1415.6	1407.2	1400.5	1137	1125	1105.9	1.046	0.9728	0.9045
x2 = 0.1212	1364.9	1358.6	1351.2	1176.7	1168.2	1150.9	1.158	1.064	0.9825
x2 = 0.2319	1312.6	1307.3	1300.6	1219.7	1214.2	1199.9	1.264	1.163	1.074
x2 = 0.3463	1261.1	1256.2	1250.2	1263.4	1261.9	1248.1	1.365	1.259	1.169
x2 = 0.445	1218.6	1214	1208.4	1301	1301.5	1288.9	1.454	1.336	1.242
x2 = 0.5545	1173.4	1168.9	1163.6	1342.8	1343.3	1332.8	1.545	1.411	1.307
x2 = 0.6861	1121.7	1117.3	1112.1	1393.4	1392.9	1383.2	1.631	1.491	1.381
x2 = 0.8245	1070.3	1065.7	1060.7	1446.6	1445.1	1431.8	1.706	1.561	1.436
x2 = 0.972	1018.4	1013.7	1009	1505.3	1498.7	1488.9	1.758	1.595	1.477

N#CCc1ccccc1 [benzeneacetonitrile] + ClC(Cl)=C(Cl)Cl
Conditions	mass density, 303.15 K [kg/m3]	mass density, 308.15 K [kg/m3]	mass density, 313.15 K [kg/m3]	speed of sound, 303.15 K [m/s]	speed of sound, 308.15 K [m/s]	speed of sound, 313.15 K [m/s]	viscosity, 303.15 K [mPa·s]	viscosity, 308.15 K [mPa·s]	viscosity, 313.15 K [mPa·s]
x1 = 0.0231	1591.9	1583	1575.7	1037.5	1024.4	1010.5	0.8124	0.7752	0.746
x1 = 0.1322	1520.1	1512.1	1505.3	1082.9	1070.9	1060.1	0.884	0.8382	0.8001
x1 = 0.249	1445.2	1438	1431.6	1133.9	1123.3	1113.4	0.9577	0.9171	0.868
x1 = 0.37	1369.8	1363.1	1357.1	1188.9	1178.8	1168.9	1.06	0.9982	0.9342
x1 = 0.4713	1308.3	1302	1296.2	1236.8	1226.7	1216.8	1.159	1.077	1.003
x1 = 0.5767	1245.7	1239.8	1234.3	1288.5	1278.5	1268.9	1.269	1.172	1.096
x1 = 0.7051	1171.4	1166.1	1160.8	1355	1345	1335.7	1.413	1.294	1.207
x1 = 0.8386	1096.5	1091.6	1086.6	1428	1419.2	1409.3	1.571	1.43	1.329
x1 = 0.972	1023.9	1019.2	1014.5	1504.1	1497.9	1486.1	1.726	1.57	1.458
x1 = 1	1008.8	1004.1	999.5	1519.2	1512.9	1503.4	1.761	1.602	1.489

N#CCc1ccccc1 [benzeneacetonitrile] + ClC(Cl)C(Cl)Cl
Conditions	mass density, 303.15 K [kg/m3]	mass density, 308.15 K [kg/m3]	mass density, 313.15 K [kg/m3]	speed of sound, 303.15 K [m/s]	speed of sound, 308.15 K [m/s]	speed of sound, 313.15 K [m/s]	viscosity, 303.15 K [mPa·s]	viscosity, 308.15 K [mPa·s]	viscosity, 313.15 K [mPa·s]
x1 = 0.0221	1566.5	1558.5	1551.7	1142	1125	1107.4	1.489	1.376	1.277
x1 = 0.1374	1497.2	1490.1	1483.5	1179.7	1166.3	1154.6	1.661	1.528	1.413
x1 = 0.2564	1426.9	1420	1413.8	1220.9	1209.3	1201.6	1.838	1.678	1.544
x1 = 0.3743	1358.8	1351.7	1345.9	1263.5	1251.5	1245.6	1.954	1.775	1.63
x1 = 0.4799	1297.2	1291.5	1285.9	1303.1	1289.9	1283.9	2.011	1.837	1.674
x1 = 0.5852	1236.4	1231.7	1226.2	1343.4	1329.5	1323.9	2.017	1.832	1.682
x1 = 0.7131	1164.2	1160.2	1154.9	1393.9	1381	1373.2	1.966	1.796	1.645
x1 = 0.8414	1093.9	1089.9	1085	1446.4	1436.5	1426.2	1.894	1.725	1.597
x1 = 0.9748	1022.5	1018.2	1013.5	1504.3	1497.2	1487.4	1.772	1.617	1.503
x1 = 1	1008.8	1004.1	999.5	1519.2	1512.9	1503.4	1.761	1.602	1.489

N#CCc1ccccc1 [benzeneacetonitrile] + ClC=C(Cl)Cl
Conditions	mass density, 303.15 K [kg/m3]	mass density, 308.15 K [kg/m3]	mass density, 313.15 K [kg/m3]	speed of sound, 303.15 K [m/s]	speed of sound, 308.15 K [m/s]	speed of sound, 313.15 K [m/s]	viscosity, 303.15 K [mPa·s]	viscosity, 308.15 K [mPa·s]	viscosity, 313.15 K [mPa·s]
x1 = 0.0195	1437	1428.5	1420	1024.6	1004.9	992.5	0.5201	0.486	0.4908
x1 = 0.119	1383.8	1377.2	1369.5	1073.5	1057.5	1045.8	0.5905	0.553	0.5292
x1 = 0.2263	1329.5	1323.9	1316.9	1128.2	1114.1	1102.9	0.6901	0.6417	0.6092
x1 = 0.3478	1271.9	1266.3	1260.1	1191	1179.2	1169.9	0.82	0.7558	0.715
x1 = 0.4396	1230.2	1225	1219.2	1238.9	1228.9	1221.9	0.9316	0.8529	0.7976
x1 = 0.5443	1184.5	1179.6	1174.2	1293.3	1284.6	1279.3	1.066	0.9721	0.9137
x1 = 0.6782	1128.8	1124.7	1119.5	1364.1	1356.5	1351	1.248	1.147	1.075
x1 = 0.819	1074.1	1070.3	1064.9	1435.8	1428.4	1425	1.456	1.339	1.248
x1 = 0.9692	1019.7	1015.3	1010.2	1504.1	1502.7	1499.2	1.698	1.546	1.439
x1 = 1	1008.8	1004.1	999.5	1519.2	1512.9	1503.4	1.761	1.602	1.489

N#CCc1ccccc1 [benzeneacetonitrile] + ClCCCl
Conditions	mass density, 303.15 K [kg/m3]	mass density, 308.15 K [kg/m3]	mass density, 313.15 K [kg/m3]	speed of sound, 303.15 K [m/s]	speed of sound, 308.15 K [m/s]	speed of sound, 313.15 K [m/s]	viscosity, 303.15 K [mPa·s]	viscosity, 308.15 K [mPa·s]	viscosity, 313.15 K [mPa·s]
x1 = 0.0165	1233.5	1225.3	1218.7	1182.2	1171.9	1161	0.7352	0.6821	0.6456
x1 = 0.1059	1205.5	1198.9	1191.5	1221.2	1211.5	1200.5	0.8165	0.7512	0.708
x1 = 0.2041	1177.1	1171	1163.5	1262.4	1252.3	1243.7	0.9029	0.8313	0.7877
x1 = 0.3088	1149.2	1143.5	1136.1	1304.2	1293.6	1285.3	1.003	0.9258	0.8746
x1 = 0.4073	1124.8	1119.4	1111.8	1339.5	1330.8	1320.8	1.103	1.017	0.9576
x1 = 0.5122	1100.7	1095.6	1087.6	1374.8	1367.5	1355.9	1.213	1.117	1.048
x1 = 0.648	1072	1067.2	1058.8	1418.6	1411.8	1399.9	1.365	1.248	1.165
x1 = 0.8003	1042.8	1038.2	1029.5	1465.2	1458.9	1447.6	1.536	1.398	1.299
x1 = 0.9705	1013.6	1008.8	999.9	1512.6	1505.4	1499.1	1.725	1.568	1.456
x1 = 1	1008.8	1004.1	999.5	1519.2	1512.9	1503.4	1.761	1.602	1.489
